Laboratory results published in patent US20100189648A1, “INHIBITORS FOR DISRUPTING THE INTERACTION OF UBIQUITINATION RELATED ENZYMES AND USES THEREOF” (priority 2006, published 2010).
Values after ≈ are worked out from the molar mass of the structure shown. Where two headings read alike, the source gives them in different places.

Assays:
Type in all cases: cell-based, human
[1] = system: Hela cells; assay: MTT survival assay, cervical cancer line (Hela cells); settings: for IC50: Homo sapiens
Procedure: (§1) The effect of the above identified compounds on anti-tumor activity in human carcinoma cells was determined by the MTT survival assay. The MTT assay is a commonly used method in evaluation of cell survival, based on the ability of viable cells to convert MTT (MTT, Sigma, Cat No. 044K5307), a soluble tetrazolium salt [3-(4,5-dimethylthuazole-2-yl)-2,5 diphenyl tetrazolium bromide], into an insoluble formazan precipitate, which is quantitated by spectrophotometry following solubilization in dimethyl sulfoxide (DMSO).
(§2) In brief, different carcinoma cells were treated with negative control, various test articles at different concentration, and positive control (DDP), in 96-well tissue culture dishes. Each test article at different concentration is repeated 3 times.
(§3) Different carcinoma cells were diluted with 10% FBS and RPM1640 or MEM media to a concentration of 3-5×10^4 per ml suspension. 100 microliter of cells were incubated in each well in 96-well tissue culture dishes at 37 C. The cells were incubated at 37 C on the first day. On the second day, media supernatant was removed and replaced with media and different concentration of test articles (100 microliter in each well). Three Negative control wells and three positive control (DDP) wells were also included. The 96-well plate were incubated at 37 C for another 68 hours. After 68 hours, supernatant of each well was removed. 100 microliter of 1 mg/ml MTT diluted in PBS was injected into each well. The cells were incubated at 37 C for another 4 hours. The cells were then solubilized in 150 microliter DMSO, mixed for 10 minutes and absorbance readings were taken using Microplate reader Bio-Rad Model 550 at 570 nm. IR (cell growth inhibition rate) % was calculated as (OD570 of negative control-OD570 with test article)/OD570 of negative control. IC50 (cell 50% inhibition concentration) at 95% confidence level was calculated with Bliss method.

[2] = system: MCF-7; assay: MTT survival assay, breast cancer cell line (MCF-7); settings: for IC50: Homo sapiens
Procedure: as §1, §2, §3

[3] = system: A459; assay: MTT survival assay, lung cancer cell line (A459); settings: A459 Experiment #2; for IC50: Homo sapiens
Procedure: as §1, §2, §3

[4] = system: SMMC-7721; assay: MTT survival assay, liver cancer cell line (SMMC-7721); settings: SMMC-7721 Experiment #2; for IC50: Homo sapiens
Procedure: as §1, §2, §3

[5] = system: SKOV3; assay: MTT survival assay, ovarian cancer cell line (SKOV3); settings: SKOV3 (second table)
Procedure: as §1, §2, §3

[6] = system: U251; assay: MTT survival assay, glioma cell line (brain tumor U251); settings: U251 (second table)
Procedure: as §1, §2, §3

[7] = 95% confidence limits of IC50, read-out: IC50 (95% confidence level), interval
[8] = Bliss method, unit not printed (concentrations in μg/ml), read-out: IC50 (95% confidence level)

**Q.** What does the source list for `Cc1ccc(S(=O)(=O)NCC(=O)NCC(c2ccccc2)c2c[nH]c3ccccc23)cc1` (centres unmarked) [Mol 640]?
**A.** IR (%) ([1]; 0.41 μg/ml): 12.3%; OD(A570 nm) ([1]; 0.41 μg/ml): 0.651 ± 0.044; OD(A570 nm) ([1]; 1.23 μg/ml): 0.826 ± 0.101; OD(A570 nm) ([1]; 3.70 μg/ml): 0.819 ± 0.085; IR (%) ([1]; 11.11 μg/ml): 12.2%; OD(A570 nm) ([1]; 11.11 μg/ml): 0.652 ± 0.057; IR (%) ([1]; 33.33 μg/ml): 76.8%; OD(A570 nm) ([1]; 33.33 μg/ml): 0.172 ± 0.010; IR (%) ([1]; 100 μg/ml): 89.5%; OD(A570 nm) ([1]; 100 μg/ml): 0.078 ± 0.023; IC50 [1, 7]: 21.9 to 29.1 µg/mL (≈ 49 to 65.1 µM); IC50 [1, 8]: 25.3 µg/mL (≈ 56.4 µM); IR (%) ([2]; 3.125 μg/ml): 10.5%; OD(A570 nm) ([2]; 3.125 μg/ml): 0.807 ± 0.016; IR (%) ([2]; 6.25 μg/ml): 21.5%; OD(A570 nm) ([2]; 6.25 μg/ml): 0.708 ± 0.058; IR (%) ([2]; 12.5 μg/ml): 28.1%; OD(A570 nm) ([2]; 12.5 μg/ml): 0.649 ± 0.036; IR (%) ([2]; 25 μg/ml): 89.6%; OD(A570 nm) ([2]; 25 μg/ml): 0.094 ± 0.012; IR (%) ([2]; 50 μg/ml): 89.1%; OD(A570 nm) ([2]; 50 μg/ml): 0.098 ± 0.012; IR (%) ([2]; 100 μg/ml): 92.3%; OD(A570 nm) ([2]; 100 μg/ml): 0.069 ± 0.007; IC50 ([2]; MCF7, 95% confidence limits of IC50, read-out: IC50 (95% confidence level), interval): 12.3 to 16.1 µg/mL (≈ 27.6 to 36 µM); IC50 ([2]; MCF7, Bliss method, unit not printed (concentrations in μg/ml), read-out: IC50 (95% confidence level)): 14.1 µg/mL (≈ 31.5 µM); IR (%) ([3]; 3.125 μg/ml): −22.6%; OD(A570 nm) ([3]; 3.125 μg/ml): 0.781 ± 0.040; IR (%) ([3]; 6.25 μg/ml): −12.5%; OD(A570 nm) ([3]; 6.25 μg/ml): 0.717 ± 0.020; IR (%) ([3]; 12.5 μg/ml): 6.9%; OD(A570 nm) ([3]; 12.5 μg/ml): 0.593 ± 0.034; IR (%) ([3]; 25 μg/ml): 63.6%; OD(A570 nm) ([3]; 25 μg/ml): 0.232 ± 0.006; IR (%) ([3]; 50 μg/ml): 87.2%; OD(A570 nm) ([3]; 50 μg/ml): 0.081 ± 0.010; IR (%) ([3]; 100 μg/ml): 87.1%; OD(A570 nm) ([3]; 100 μg/ml): 0.082 ± 0.014; IC50 [3, 7]: 25.5 to 26.1 µg/mL (≈ 57 to 58.4 µM); IC50 [3, 8]: 25.8 µg/mL (≈ 57.7 µM); IC50 [4, 7]: 7.68 to 8.36 µg/mL (≈ 17.2 to 18.7 µM); IC50 [4, 8]: 8.02 µg/mL (≈ 17.9 µM); IR (%) ([4]; 3.125 μg/ml): 53.4%; OD(A570 nm) ([4]; 3.125 μg/ml): 0.215 ± 0.008; IR (%) ([4]; 6.25 μg/ml): 39.8%; OD(A570 nm) ([4]; 6.25 μg/ml): 0.278 ± 0.013; IR (%) ([4]; 12.5 μg/ml): 41.9%; OD(A570 nm) ([4]; 12.5 μg/ml): 0.268 ± 0.013; IR (%) ([4]; 25 μg/ml): 56.6%; OD(A570 nm) ([4]; 25 μg/ml): 0.200 ± 0.002; IR (%) ([4]; 50 μg/ml): 80.2%; OD(A570 nm) ([4]; 50 μg/ml): 0.091 ± 0.002; IR (%) ([4]; 100 μg/ml): 78.7%; OD(A570 nm) ([4]; 100 μg/ml): 0.098 ± 0.014; IC50 ([5]; Homo sapiens, SK-OV-3, Bliss method, unit not printed (concentrations in μg/ml), read-out: IC50 (95% confidence level)): 26.9 µg/mL (≈ 60 µM); IR (%) ([5]; 3.125 μg/ml): 0%; OD(A570 nm) ([5]; 3.125 μg/ml): 0.716 ± 0.048; IR (%) ([5]; 6.25 μg/ml): 10.3%; OD(A570 nm) ([5]; 6.25 μg/ml): 0.628 ± 0.025; IR (%) ([5]; 12.5 μg/ml): 9.7%; OD(A570 nm) ([5]; 12.5 μg/ml): 0.632 ± 0.020; IR (%) ([5]; 25 μg/ml): 43.8%; OD(A570 nm) ([5]; 25 μg/ml): 0.394 ± 0.037; IR (%) ([5]; 50 μg/ml): 88.3%; OD(A570 nm) ([5]; 50 μg/ml): 0.082 ± 0.008; IR (%) ([5]; 100 μg/ml): 88.7%; OD(A570 nm) ([5]; 100 μg/ml): 0.079 ± 0.010; IC50 ([6]; Homo sapiens, U-251, Bliss method, unit not printed (concentrations in μg/ml), read-out: IC50 (95% confidence level)): 11.7 µg/mL (≈ 26 µM); IR (%) ([6]; 3.125 μg/ml): 9.2%; OD(A570 nm) ([6]; 3.125 μg/ml): 0.796 ± 0.055; IR (%) ([6]; 6.25 μg/ml): 20.6%; OD(A570 nm) ([6]; 6.25 μg/ml): 0.696 ± 0.054; IR (%) ([6]; 12.5 μg/ml): 59.6%; OD(A570 nm) ([6]; 12.5 μg/ml): 0.354 ± 0.021; IR (%) ([6]; 25 μg/ml): 90.3%; OD(A570 nm) ([6]; 25 μg/ml): 0.085 ± 0.012; IR (%) ([6]; 50 μg/ml): 90.1%; OD(A570 nm) ([6]; 50 μg/ml): 0.087 ± 0.012; IR (%) ([6]; 100 μg/ml): 89.7%; OD(A570 nm) ([6]; 100 μg/ml): 0.090 ± 0.014
